Assay: Biochemical Assay: Active Moz protein was expressed as N-terminal fusion protein with a His6 tag in BL21 E. coli cells. Protein purification was performed via nickel-immobilized metal ion affinity chromatography followed by gel filtration. […] The reactions were performed in assay buffer (100 mM Tris-HCl, pH 7.8, 15 mM NaCl, 1 mM EDTA, 0.01% Tween-20, 1 mM Dithiothreitol, and 0.02% m/v chicken egg white albumin). Reactions were set up with 0.4 μM Acetyl coenzyme A (AcCoA), 50 nM N-terminal histone H4 peptide (sequence […]-GGK-biotin), 10 nM MOZ enzyme, and an acetyl-lysine specific antibody (final dilution 1:10000). 11-point dilution series of the compounds of the invention were prepared in DMSO; a volume of 100 nL was transferred using a pin tool into assay plates containing substrates, before adding enzyme to start the reaction. Positive (no compound) and negative (AcCoA omitted) control reactions were included on the same plates and received the same amount of DMSO as the compound treated wells. After adding all reagents, the plates were sealed with adhesive seals and incubated for 90 minutes at room temperature. An additional 4 μL of assay buffer containing AlphaScreen® Protein A acceptor beads and Streptavidin donor beads (PerkinElmer, Waltham, Mass.) to a final concentration of 4 μg/mL was then added. […]

O=C(NNS(=O)(=O)c1ccc2ccccc2c1)c1cccc(-c2cccnc2)c1
IC50: 13.1 µM

O=C(NNS(=O)(=O)c1ccccc1F)c1cc(-c2ccc(F)cc2)ccc1F
IC50: 0.839 µM

Reference: ChEMBL document CHEMBL5728088, “Aryl sulfonohydrazides” (2020)
